Data taken from patent US8568801B2, “Solid oral sensorial products including stain inhibitor” (Philip Morris USA Inc., priority 2010, dated 2013).

Experiments:
[1] = Hydroxyapatite powder soaked in tea extract; conditions: 5.0 g tea and 50 mg sodium hexametaphosphate in 100 mL water, room temperature, about 1 hour; FIG. 12
Procedure: A second extract was formed by soaking 5.0 g of tea in 100 mL water at room temperature for about 1 hour. Each extract was then filtered through #2 Watman filter paper. Approximately 152 mg of hydroxyapatite powder was placed in the bottom of each of two centrifuge vials. 14 mL of the first extract was placed in one vial and 14 mL of the second extract was placed in the second vial.

[2] = Cow's teeth staining by extract of Burley tobacco pouches; conditions: as printed, the tobacco-only tooth is the darker one; inhibitor extract from 50 mg sodium hexametaphosphate and 5.0 g Burley tobacco; 5 soaks; FIG. 10
Procedure: (§1) To determine the effectiveness of the phosphate containing stain inhibitor on solid oral sensorial products including tobacco, 187.5 mL artificial saliva and 75 pouches containing 5.0 g Burley tobacco were placed in a bag in a water bath at 100° F. for 3 minutes. The artificial saliva was formed as part of a 1000 mL batch including 4.20 g sodium bicarbonate, 0.50 g sodium chloride and 0.20 g potassium carbonate. The bag was removed and rolled for about 2 minutes and then returned to the water bath for 10 minutes. This process was repeated four more times (five total). The pouches were then removed from the bag and 50 mL of the Burley tobacco extract was placed in a 250 mL crystallization beaker. Cow's teeth were then immersed in the 50 mL of extract, the beaker was covered with polypropylene wrap, and the teeth were soaked for 7 minutes at about 100° F. The teeth were removed from the beaker and rinsed with reverse osmosis water for about 5 seconds. The front enamel of each tooth was brushed with 1 g of Crest® Cavity Protection toothpaste for 30 seconds, rinsed with reverse osmosis water and covered to prevent exposure to light. This regime was repeated 4 additional times (5 total). A second extract was made using pouches including 5.0 g Burley tobacco and 50 mg sodium hexametaphosphate. […]

[3] = Cow's teeth staining by extract of tea pouches, simulating 6 months of use; conditions: extract of pouches with 5.0 g tea and 50 mg sodium hexametaphosphate; 5 soaks of 7 minutes at about 100° F. with brushing; FIG. 9
Procedure: as §1, with “on” for “on solid”, “tea, a test was performed to simulate 6 months of use of the oral sensorial products. About” for “tobacco,”, “tea” for “Burley tobacco”, “the” for “the Burley tobacco”

[4] = Hydroxyapatite powder washed in phosphate, then soaked in Burley tobacco extract; conditions: compared with unwashed HAP powder and with HAP powder first washed in dibasic sodium phosphate; FIG. 11
[5] = Hydroxyapatite powder soaked in Burley tobacco extract with various amounts of sodium hexametaphosphate; conditions: FIG. 13
Procedure: To determine the effect of various amount of sodium hexametaphosphate, 5.0 grams of Burley tobacco was soaked in 100 mL water at room temperature for 1 hour to form a first extract. A second extract was formed by soaking 5.0 grams of Burley tobacco and […] sodium hexametaphosphate in 100 mL water at room temperature for 1 hour. A third extract was formed by soaking 5.0 grams of Burley tobacco and 0.252 g sodium hexametaphosphate in 100 mL water at room temperature for 1 hour. A fourth extract was formed by soaking 5.0 grams of Burley tobacco and 0.047 g sodium hexametaphosphate in 100 mL water at room temperature for 1 hour. Each extract was then filtered through #2 Watman filter paper. Approximately […] of hydroxyapatite powder was placed in the bottom of each of four centrifuge vials. 14 mL of the first extract was placed in the first vial, 14 mL of the second extract was placed in the second vial, 14 mL of the third extract was placed in the third vial and 14 mL of the fourth extract was placed in the fourth vial. The powder in each vial was allowed to soak for about 1 hour with agitation and then the powder was decanted, washed in distilled water at least three times and decanted each time.

## O=P1([O-])OP(=O)([O-])OP(=O)([O-])OP(=O)([O-])OP(=O)([O-])OP(=O)([O-])O1.[Na+].[Na+].[Na+].[Na+].[Na+].[Na+] [sodium hexametaphosphate]
[1]
  color of HAP powder soaked in extract of tea and sodium hexametaphosphate compared with tea alone: visibly whiter
[2]
  color of cow's tooth soaked in Burley tobacco extract alone compared with tooth soaked in extract with sodium hexametaphosphate: visibly darker
[3]
  color of cow's teeth exposed to sodium hexametaphosphate and tea compared with teeth exposed to tea alone: noticeably lighter in color
[4]
  color of HAP powder first washed in the phosphate and then soaked in Burley tobacco extract: visibly whiter
[5]; 25.080 g, 0.252 g and 0.047 g sodium hexametaphosphate with 5.0 g Burley tobacco in 100 mL water
  color of powders soaked in extracts with larger amounts of sodium hexametaphosphate compared with smaller amounts: lighter in color
[5]; as printed, the tobacco-only powder is the darker one, 5.0 g Burley tobacco with 25.080 g, 0.252 g or 0.047 g sodium hexametaphosphate in 100 mL water
  color of powder soaked in Burley tobacco extract alone compared with powders soaked in extracts including sodium hexametaphosphate: visibly darker
